# Reference: BindingDB's records for doi:10.1039/c9md00489k (University of Porto, 2020)
# *1 amine or outer side, *2 acyl side, *3 side chain or, on linkers, in order; H or OH if unused. Where a SMILES comes first, the peptide text is derived from it. The star is where a group is joined. X1 = O=c1nc(N*)ccn1[C@@H]1O[C@H](CO)[C@@H](O)C1(F)F; Suc = O=C(CCC(=O)[*:2])[*:1]
# Assay: Substrate activity at ENT1 in human BXPC-3 cells assessed as inhibition of cell growth pretreated with ENT1 inhibitor nitrobenzylthioinosine for 5 mins measured after 72 hrs by SRB assay
row,Compound,IC50
1,CSCC[C@H](NC(=O)[C@@H](NC(=O)[C@@H]1CCCN1C(=O)[C@H](CC(C)C)NC(=O)[C@H](CCCCN)NC(=O)CCC(=O)Nc1ccn([C@@H]2O[C@H](CO)[C@@H](O)C2(F)F)c(=O)n1)C(C)C)C(=O)N[C@@H](Cc1c[nH]c2ccccc12)C(N)=O ({X1-Suc}-KLPVMW-NH2),0.384 µM
2,CSCC[C@H](NC(=O)[C@@H](NC(=O)[C@@H]1CCCN1C(=O)[C@H](CC(C)C)NC(=O)[C@H](CCCCN)NC(=O)[C@H](Cc1c[nH]c2ccccc12)NC(=O)CCC(=O)Nc1ccn([C@@H]2O[C@H](CO)[C@@H](O)C2(F)F)c(=O)n1)C(C)C)C(N)=O ({X1-Suc}-WKLPVM-NH2),0.38 µM
3,H-KLPVMW-NH2,> 1 µM
4,H-WVPTLK-NH2,> 1 µM

# Other lines, results leading:
row,IC50,Compound
1,> 1 µM,CSCC[C@H](NC(=O)[C@H](NC(=O)[C@@H]1CCCN1C(=O)[C@H](CC(C)C)NC(=O)[C@H](CCCCN)NC(=O)[C@@H](N)Cc1c[nH]c2ccccc12)C(C)C)C(N)=O
2,0.381 µM,CC(C)C[C@H](NC(=O)[C@@H](NC(=O)[C@@H]1CCCN1C(=O)[C@@H](NC(=O)[C@H](Cc1c[nH]c2ccccc12)NC(=O)CCC(=O)Nc1ccn([C@@H]2O[C@H](CO)[C@@H](O)C2(F)F)c(=O)n1)C(C)C)[C@@H](C)O)C(=O)N[C@@H](CCCCN)C(N)=O ({X1-Suc}-WVPTLK-NH2)
